We go through eight compounds from patent publication EP0103830A2, “Phenylethylemine derivatires as growth stimulators” (priority 1982, dated 1984).

What all share (assay type): in vivo
A short description of test [1]: Feeding trial in rats over 15 days (Beispiel 7), results relative to control. To be noted: 25 ppm in feed, 15 Tage, Ratten weiblich SPF-Wistar; Kontrolle = 100 %. The source says: Vor Beginn des Fütterungsversuches wurden die Ratten zwei Tage lang an die neuen Haltungsbedingungen adaptiert, wobei generell das Versuchsfutter ohne Wirkstoffzusatz verabreicht wurde. Am dritten Versuchstag wurden die Tiere randomisiert und anschließend die Versuchsgruppen so gebildet, daß sowohl die Mittelwerte als auch die Streuungen in den Körpergewichten zwischen den Gruppen gleich waren.
Der Fütterungsversuch, in dem die Futteraufnahme, der Körpergewichtszuwachs und die Futterverwertung individuell bestimmt wurden, erstreckte sich über 15 Tage.
Als Wirkstoffe wurden dem Futter untergemischt: • 1-(3,4-Dihydroxyphenyl)-2-[1-methyl-2-(3,4-methylendioxyphenyl)ethylamino]ethanolhydrochlorid (= Verbindung I), • 2-Amino-1-(3-hydroxyphenyl)ethanolhydrochlorid (= Verbindung II), • 2-Amino-1-(3-hydroxyphenyl)propanolh^ydrogentartrat (= Verbindung III), • 1-(4-Hydroxyphenyl)-2-(1-methyl-3-phenylpropylamino)-propanolhydrochlorid (= Verbindung IV), • 2-Ethylamino-1-(3-hydroxyphenyl)ethanolhydrochlorid (= Verbindung V), • 1- (3,5-Dihydroxyphenyl) -2- (3-phenylpropylamino) propanol als Salz der 4-Aminobenzoesäure (= Verbindung VI), • 1-(3-Hydroxyphenyl)-2-(1,1-dimethyl-2-phenylethylamino)-ethanol als Salz der 4-Aminobenzoesäure (= Verbindung VII), • 5-[2-[1,1-Dimethylethyl)amino]-1-hydroxyethyl]-2-hydroxy- benzamid . HCl (= Verbindung VIII)
Ratten, weiblich, SPF-Wistar 36 Tiere/Versuch Gewicht: 90 bis 150 g Futter: Haltungsdiät für Ratten mit folgender Zusammensetzung: […]

Test [2] in a line: Feeding trial (Beispiel 1): feed intake, weight gain, feed conversion. To be noted: 25 ppm in feed, n = 6, whole trial period (13 Tage), Ratten weiblich SPF Wistar. The source says:
(§1) Die Tiere wurden 2 Tage an die neuen Haltungsbedingungen adaptiert, wobei generell das Versuchsfutter ohne Wirkstoffzusatz verabreicht wurde. Am dritten Versuchstag wurden die Tiere randomisiert und anschließend die Versuchsgruppen so gebildet, daß sowohl die Mittelwerte als auch die Streuungen in den Körpergewichten zwischen den Gruppen gleich waren. Nach einer 5-tägigen Vorperiode wurde eine 8-tägige Hauptperiode durchgeführt, in denen Futteraufnahme, Zuwachs und Futterverwertung bestimmt wurden.
(§2) Es wurden folgende Behandlungen geprüft: • b 1) Negativkontrolle (n = 12) • b 2) 25 ppm (Wirkstoff Herstellungsbeispiel 1) (n = 6)

Test [3] is described as follows: Feeding trial (Beispiel 3): feed intake, weight gain, feed conversion. To be noted: 25 ppm in feed, n = 6, whole trial period (13 Tage).
Description: as §1, §2

Test [4] can be described thus: Feeding trial (Beispiel 2): feed intake, weight gain, feed conversion. To be noted: 0,2 ppm in feed, whole trial period (12 Tage). The source says:
Die Tiere wurden 2 Tage an die neuen Haltungsbedingungen adaptiert, wobei generell das Versuchsfutter ohne Wirkstoffzusatz verabreicht wurde. Am dritten Versuchstag wurden die Tiere randomisiert und anschließend die Versuchsgruppen so gebildet, daß sowohl die Mittelwerte als auch die Streuungen in den Körpergewichten zwischen den Gruppen gleich waren. Nach einer 5-tägigen Vorperiode wurde eine 7-tägige Hauptperiode durchgeführt, in denen Futteraufnahme, Zuwachs und Futterverwertung bestimmt wurden.
Es wurden folgende Behandlungen geprüft: • b 1) Negativkontrolle (n = 24) • b 2) 0,2 ppm (Wirkstoff Herstellungsbeispiel 1)

Test [5] is described as follows: Feeding trial (Beispiel 6): feed intake, weight gain, feed conversion. To be noted: 25 ppm in feed, n = 6, whole trial period (13 Tage).
Description: as §1
(§3) Es wurden folgende Behandlungen geprüft: • b 1) Negativkontrolle (n = 12) • b 2) 25 ppm (Wirkstoff Herstellungsbeispiel 2) (n = 6)

The nature of test [6]: Feeding trial (Beispiel 4): feed intake, weight gain, feed conversion. The settings on record: 25 ppm in feed, n = 6, whole trial period (13 Tage).
Description: as §1, §3

Test [7] can be described thus: Feeding trial (Beispiel 5): feed intake, weight gain, feed conversion. The settings on record: 25 ppm in feed, n = 6, whole trial period (13 Tage).
Description: as §1, §3

Structures can show the parent of a compound that is named as a salt.

For `CC(C)(C)NCC(O)c1ccc(O)c(C(N)=O)c1` (stereo not drawn) [Verbindung VIII, 5-[2-[(1,1-Dimethylethyl)amino]-1-hydroxyethyl]-2-hydroxy-benzamid . HC1], in test [1], the Futteraufnahme was determined as 106%, the Futterverwertung is recorded as 84,8% and the Zuwachs is recorded as 125,0%.

In the case of `CC(Cc1ccc2c(c1)OCO2)NCC(O)c1ccc(O)c(O)c1` (stereo not drawn) [Verbindung I, 1-(3,4-Dihydroxyphenyl)-2-[1-methyl-2-(3,4-methylendioxyphenyl)ethylamino]ethanolhydrochlorid], in test [1], the Futteraufnahme turned out to be 104%, the Futterverwertung is listed as 92,9% and the Zuwachs is reported as 112%.

In the case of `NCC(O)c1cccc(O)c1` (stereo not drawn) [Verbindung II, 2-Amino-1-(3-hydroxyphenyl)ethanolhydrochlorid], in test [1], the Futteraufnahme came to 98%, the Futterverwertung was 91,6% and the Zuwachs is reported as 107%.

As for `CCNCC(O)c1cccc(O)c1` (stereo not drawn) [Verbindung V, 2-Ethylamino-1-(3-hydroxyphenyl)ethanolhydrochlorid], in test [1], the Futteraufnahme worked out at 104%, the Futterverwertung is 90,4% and the Zuwachs is 115%.

In the case of `COc1ccc(C(O)CNC(C)(C)C)cc1` (stereo not drawn) [Herstellungsbeispiel 1, 2-t-Butylamino-1-(4-methoxyphenyl)-ethanol], the Futterverwertung in test [2] (Negativkontrolle 5,62) is reported as 4,03 g/g; in test [3] (Negativkontrolle 5,04) it was 4,41 g/g; in test [4] (Negativkontrolle 4,88), 4,21 g/g. The results for the Zuwachs in test [2] (Negativkontrolle 27,9), in test [3] (Negativkontrolle 37,0) and in test [4] (Negativkontrolle 41,0) were 43,7 g, 42,4 g and 50,5 g, respectively. The figures for the Futteraufnahme in test [2] (Negativkontrolle 153), in test [3] (Negativkontrolle 182) and in test [4] (Negativkontrolle 200) were 175 g, 187 g and 213 g, respectively.

For `CC(CCc1ccccc1)NC(C)C(O)c1ccc(O)cc1` (stereo not drawn) [Verbindung IV, 1-(4-Hydroxyphenyl)-2-(1-methyl-3-phenylpropylamino)-propanolhydrochlorid], in test [1], the Futteraufnahme was 101,7%, the Futterverwertung was 96,9% and the Zuwachs is listed as 105%.

With `CC(C)(C)NCC(O)c1cc(Br)c(O)c(Br)c1` (stereo not drawn) [Herstellungsbeispiel 2], the values for the Futterverwertung in test [5] (Negativkontrolle 5,04), in test [6] (Negativkontrolle 4,75) and in test [7] (Negativkontrolle 5,62) were 4,36 g/g, 4,41 g/g and 3,96 g/g, respectively. The Zuwachs is given as 43,2 g in test [5] (Negativkontrolle 37,0), 45,1 g in test [6] (Negativkontrolle 41,3) and 43,4 g in test [7] (Negativkontrolle 27,9). Moreover, the Futteraufnahme in test [5] (Negativkontrolle 182) worked out at 183 g; in test [6] (Negativkontrolle 196), 199 g; in test [7] (Negativkontrolle 152), 171 g.

Take `CC(N)C(O)c1cccc(O)c1` (stereo not drawn) [Verbindung III, 2-Amino-1-(3-hydroxyphenyl)propanolhydrogentartrat]: in test [1], the Futteraufnahme was 99%, the Futterverwertung is reported as 96,1% and the Zuwachs is on record as 103%.
